This note sets out measurements from patent US10370339B2, “N-Methylbenzimidazoles as mIDH1 inhibitors” (BAYER PHARMA AKTIENGESELLSCHAFT, priority 2015, dated 2019).

The target in assay [1] is IDH1 R132H enzyme (Homo sapiens (Human), UniProt O75874, R132H). Nature of the assay: Mutant IDH1 R132H biochemical assay. The note with it: NADPH consumption, luminescent readout; 1.5 nM enzyme, 1 μM NADPH, 250 μM α-KG, 30 minutes, 32° C. The procedure:
Mutant IDH1 R132H Biochemical Assay mIDH1 catalyzes the NADPH-dependent reduction of alpha-ketoglutarate (a-KG) to (2R)-2-hydroxyglutarate (2-HG). NADPH consumption was measured by luminescent readout.
The biochemical reactions were performed at 32° C. in 384-well plates using a reaction volume of 41 μL and the following assay buffer conditions: 50 mM Tris pH 7.5, 100 mM NaCl, 20 mM MgCl2, 0.05% BSA, 0.01% Brij, 1 μM NADPH, and 250 μM α-KG. The IDH1 R132H enzyme was used in a final concentration of 1.5 nM. Test compounds were used in a concentration range between 0.002 and 10 μM. The final DMSO concentration was 2.4%.
The reaction was incubated for 30 minutes, then 40 μL of detection mix (0.75 μg/ml Luciferase, 0.02 U/ml Oxidoreductase, 4 μg/mL FMN, 2 μL/ml decanal/ethanol, 50 mM Tris pH 7.5, 0.5% Glycerin, 0.01% Tween-20, 0.05% BSA) was added. Luminescence was measured on a luminescent reader (10 seconds measuring time, 1 second integration period, 30% sensitivity). The decrease in luminescence is proportional to mIDH1 activity. IC50 values are determined by interpolation from plots of relative luminescence versus inhibitor concentration.

Assay [2] addresses Mutant IDH1 (LN229 R132H cells) (Homo sapiens (Human), UniProt O75874, R132H). In words: Mutant IDH1 cellular assay (2-HG levels in medium of LN229 R132H cells). It counts as cell-based. The following applies: 2-HG production in LN229 R132H cells, 24 hours incubation, fluorescence readout. The procedure: Levels of (2R)-2-hydroxyglutarate (2HG) were measured in medium of a cell line with overexpression of mutated isocitrate dehydrogenase (mIDH) protein. mIDH catalyzes the NADPH-dependent reduction of alpha-ketoglutarate to 2-HG. Cells (LN229 R132H, Mohrenz et al., Apoptosis (2013) 18:1416-1425) were grown in DMEM containing 10% FCS. They were harvested by trypsin and seeded into 96-well plates. Cells were incubated overnight at 37° C. in 5% CO2. The next day test compounds were added to each cell well. The final concentration of DMSO was 0.1% and DMSO controls were included. The plates were then placed in an incubator for 24 hours.
2-HG was measured according to Balss et al. (Acta Neuropathol (2012) 124: 883-891). Briefly, HClO4 was added to each well and the plates were centrifuged. Aliquots are removed and incubated with hydroxyglutarate dehydrogenase (HGDH), diaphorase, NAD+, and resazurin. The conversion of resazurin to resorufin was detected by fluorescence spectroscopy at Ex 540 nm Em 600 nm. The increase in fluorescence is proportional to 2-HG production. IC50 values are determined by interpolation from plots of relative fluorescence vs inhibitor concentration.

Sequence of Mutant IDH1 (LN229 R132H cells) (O75874 whole entry R132H): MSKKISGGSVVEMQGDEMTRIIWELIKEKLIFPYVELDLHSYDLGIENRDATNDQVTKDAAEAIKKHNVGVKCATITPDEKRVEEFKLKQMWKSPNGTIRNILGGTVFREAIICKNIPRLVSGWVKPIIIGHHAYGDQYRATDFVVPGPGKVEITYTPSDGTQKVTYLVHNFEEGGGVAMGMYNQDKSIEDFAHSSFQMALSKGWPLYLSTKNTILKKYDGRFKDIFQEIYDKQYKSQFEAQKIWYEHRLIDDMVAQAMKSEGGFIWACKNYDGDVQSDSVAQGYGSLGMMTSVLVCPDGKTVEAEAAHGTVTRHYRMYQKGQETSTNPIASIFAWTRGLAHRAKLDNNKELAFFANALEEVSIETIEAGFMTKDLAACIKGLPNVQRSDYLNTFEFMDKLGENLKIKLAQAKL
Sequence of IDH1 R132H enzyme (O75874 whole entry R132H): as above

For the compound `COc1cc2c(cc1C(=O)O)nc(Nc1ccc(C(C)C)cc1)n2[C@@H]1C[C@H](C)CC[C@H]1C(C)C` [Example 2-29], the IC50 in assay [1] was found to be 13 nM; in assay [2], 40 nM.

In general, IC50 refers to the concentration at which inhibition is half-maximal.
